What was measured:
Assay in all cases: HotSpot kinase assay
Assay type in all cases: biochemical
Conditions in all cases: read-out: % Enzyme Activity (relative to DMSO controls)
DMPK = target: T1, DMPK (Homo sapiens, UniProt Q09013)
T1 construct: purchased Reaction Biology Corporation

CDK3/cyclin E = target: T2, CDK3/cyclin E (Homo sapiens, UniProt Q00526)
T2 construct: purchased Reaction Biology Corporation

MST1/STK4 = target: T3, MST1/STK4 (Homo sapiens, UniProt Q13043)
T3 construct: purchased Reaction Biology Corporation

MNK1 = target: T4, MNK1 (Homo sapiens, UniProt Q9BUB5)
T4 construct: purchased Reaction Biology Corporation

CDK16/cyclin Y (PCTAIRE) = target: T5, CDK16/cyclin Y (PCTAIRE) (Homo sapiens, UniProt Q00536)
T5 construct: purchased Reaction Biology Corporation

ERBB4/HER4 = target: T6, ERBB4/HER4 (Homo sapiens, UniProt Q15303)
T6 construct: purchased Reaction Biology Corporation

PLK2 = target: T7, PLK2 (Homo sapiens, UniProt Q9NYY3)
T7 construct: purchased Reaction Biology Corporation

CDK14/cyclin Y (PFTK1) = target: T8, CDK14/cyclin Y (PFTK1) (Homo sapiens, UniProt O94921)
T8 construct: purchased Reaction Biology Corporation

ULK3 = target: T9, ULK3 (Homo sapiens, UniProt Q6PHR2)
T9 construct: purchased Reaction Biology Corporation

SNRK = target: T10, SNRK (Homo sapiens, UniProt Q9NRH2)
T10 construct: purchased Reaction Biology Corporation

STK16 = target: T11, STK16 (Homo sapiens, UniProt O75716)
T11 construct: purchased Reaction Biology Corporation

ZAP70 = target: T12, ZAP70 (Homo sapiens, UniProt P43403)
T12 construct: purchased Reaction Biology Corporation

DDR2 = target: T13, DDR2 (Homo sapiens, UniProt Q16832)
T13 construct: purchased Reaction Biology Corporation

NEK9 = target: T14, NEK9 (Homo sapiens, UniProt Q8TD19)
T14 construct: purchased Reaction Biology Corporation
T14 sequence (Q8TD19 whole entry): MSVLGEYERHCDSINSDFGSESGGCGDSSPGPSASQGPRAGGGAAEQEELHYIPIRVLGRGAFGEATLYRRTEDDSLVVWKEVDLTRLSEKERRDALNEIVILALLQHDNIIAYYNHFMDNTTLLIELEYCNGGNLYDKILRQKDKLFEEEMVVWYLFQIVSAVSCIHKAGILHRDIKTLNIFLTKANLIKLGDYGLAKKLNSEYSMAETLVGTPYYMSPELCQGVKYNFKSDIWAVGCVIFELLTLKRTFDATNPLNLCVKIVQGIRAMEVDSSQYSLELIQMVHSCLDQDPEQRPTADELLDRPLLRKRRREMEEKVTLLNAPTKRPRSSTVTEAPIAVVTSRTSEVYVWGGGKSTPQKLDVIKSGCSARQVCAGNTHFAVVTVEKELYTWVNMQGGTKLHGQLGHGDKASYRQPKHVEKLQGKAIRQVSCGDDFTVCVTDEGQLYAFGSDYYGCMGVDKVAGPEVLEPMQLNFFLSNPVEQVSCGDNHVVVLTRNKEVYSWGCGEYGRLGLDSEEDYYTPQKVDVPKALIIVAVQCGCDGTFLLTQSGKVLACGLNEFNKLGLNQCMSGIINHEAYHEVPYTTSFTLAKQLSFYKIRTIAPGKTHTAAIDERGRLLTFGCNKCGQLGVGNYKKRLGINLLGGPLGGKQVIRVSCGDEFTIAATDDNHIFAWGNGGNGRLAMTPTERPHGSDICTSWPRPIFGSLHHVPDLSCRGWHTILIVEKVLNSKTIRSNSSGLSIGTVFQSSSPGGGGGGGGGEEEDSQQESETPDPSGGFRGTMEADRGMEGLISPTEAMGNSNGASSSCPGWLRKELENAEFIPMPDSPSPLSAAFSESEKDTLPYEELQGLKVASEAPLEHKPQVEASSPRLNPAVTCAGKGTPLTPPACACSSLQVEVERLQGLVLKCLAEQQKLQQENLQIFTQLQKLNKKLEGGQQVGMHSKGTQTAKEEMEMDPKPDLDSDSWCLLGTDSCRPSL

LCK = target: T15, LCK (Homo sapiens, UniProt P06239)
T15 construct: purchased Reaction Biology Corporation
T15 sequence (P06239 whole entry): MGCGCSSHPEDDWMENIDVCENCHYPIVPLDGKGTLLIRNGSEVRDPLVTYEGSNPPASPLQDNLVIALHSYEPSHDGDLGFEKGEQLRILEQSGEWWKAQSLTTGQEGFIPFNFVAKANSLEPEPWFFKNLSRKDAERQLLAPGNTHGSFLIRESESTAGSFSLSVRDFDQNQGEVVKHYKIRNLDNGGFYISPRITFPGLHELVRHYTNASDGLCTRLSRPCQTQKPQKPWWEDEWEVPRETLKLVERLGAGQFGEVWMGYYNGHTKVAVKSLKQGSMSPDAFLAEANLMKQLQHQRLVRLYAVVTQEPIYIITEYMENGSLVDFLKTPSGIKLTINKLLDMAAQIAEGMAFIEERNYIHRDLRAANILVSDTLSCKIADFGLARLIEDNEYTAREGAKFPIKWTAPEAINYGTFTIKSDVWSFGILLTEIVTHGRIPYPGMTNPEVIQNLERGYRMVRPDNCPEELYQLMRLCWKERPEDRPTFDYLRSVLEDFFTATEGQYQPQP

LIMK2 = target: T16, LIMK2 (Homo sapiens, UniProt P53671)
T16 construct: purchased Reaction Biology Corporation

LKB1 = target: T17, LKB1 (Homo sapiens, UniProt Q15831)
T17 construct: purchased Reaction Biology Corporation

ULK2 = target: T18, ULK2 (Homo sapiens, UniProt Q8IYT8)
T18 construct: purchased Reaction Biology Corporation

CK1g3 = target: T19, CK1g3 (Homo sapiens, UniProt Q9Y6M4)
T19 construct: purchased Reaction Biology Corporation

LATS2 = target: T20, LATS2 (Homo sapiens, UniProt Q9NRM7)
T20 construct: purchased Reaction Biology Corporation

SGK1 = target: T21, SGK1 (Homo sapiens, UniProt O00141)
T21 construct: purchased Reaction Biology Corporation

TRKC = target: T22, TRKC (Homo sapiens, UniProt Q16288)
T22 construct: purchased Reaction Biology Corporation

FGFR2 = target: T23, FGFR2 (Homo sapiens, UniProt P21802)
T23 construct: purchased Reaction Biology Corporation
T23 sequence (P21802 22-821): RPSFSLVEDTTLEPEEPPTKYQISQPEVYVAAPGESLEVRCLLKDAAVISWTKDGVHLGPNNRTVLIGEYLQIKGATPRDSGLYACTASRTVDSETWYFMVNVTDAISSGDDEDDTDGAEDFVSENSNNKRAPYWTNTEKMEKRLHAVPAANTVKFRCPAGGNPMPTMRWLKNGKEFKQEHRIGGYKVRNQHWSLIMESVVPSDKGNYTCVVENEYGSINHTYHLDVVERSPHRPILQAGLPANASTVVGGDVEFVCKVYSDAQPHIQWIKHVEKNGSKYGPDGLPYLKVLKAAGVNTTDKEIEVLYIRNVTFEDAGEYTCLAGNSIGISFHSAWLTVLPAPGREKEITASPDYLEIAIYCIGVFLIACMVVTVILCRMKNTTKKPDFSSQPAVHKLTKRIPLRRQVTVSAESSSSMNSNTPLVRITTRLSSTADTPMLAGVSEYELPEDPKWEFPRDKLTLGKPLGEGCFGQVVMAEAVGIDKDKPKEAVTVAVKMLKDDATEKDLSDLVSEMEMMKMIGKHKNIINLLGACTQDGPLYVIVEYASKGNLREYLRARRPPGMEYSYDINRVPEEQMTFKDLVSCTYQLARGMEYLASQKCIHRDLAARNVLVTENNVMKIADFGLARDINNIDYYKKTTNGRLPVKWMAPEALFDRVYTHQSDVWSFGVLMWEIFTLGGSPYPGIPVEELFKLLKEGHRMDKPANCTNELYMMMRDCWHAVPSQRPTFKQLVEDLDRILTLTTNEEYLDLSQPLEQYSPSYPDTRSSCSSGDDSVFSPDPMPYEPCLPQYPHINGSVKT

MKK7 = target: T24, MKK7 (Homo sapiens, UniProt O14733)
T24 construct: purchased Reaction Biology Corporation

PKCzeta = target: T25, PKCzeta (Homo sapiens, UniProt Q05513)
T25 construct: purchased Reaction Biology Corporation

CDK1/cyclin B = target: T26, CDK1/cyclin B (Homo sapiens, UniProt P06493)
T26 construct: purchased Reaction Biology Corporation

FGFR4 = target: T27, FGFR4 (Homo sapiens, UniProt P22455)
T27 construct: purchased Reaction Biology Corporation

NIM1 = target: T28, NIM1 (Homo sapiens, UniProt Q8IY84)
T28 construct: purchased Reaction Biology Corporation
T28 sequence (Q8IY84 whole entry): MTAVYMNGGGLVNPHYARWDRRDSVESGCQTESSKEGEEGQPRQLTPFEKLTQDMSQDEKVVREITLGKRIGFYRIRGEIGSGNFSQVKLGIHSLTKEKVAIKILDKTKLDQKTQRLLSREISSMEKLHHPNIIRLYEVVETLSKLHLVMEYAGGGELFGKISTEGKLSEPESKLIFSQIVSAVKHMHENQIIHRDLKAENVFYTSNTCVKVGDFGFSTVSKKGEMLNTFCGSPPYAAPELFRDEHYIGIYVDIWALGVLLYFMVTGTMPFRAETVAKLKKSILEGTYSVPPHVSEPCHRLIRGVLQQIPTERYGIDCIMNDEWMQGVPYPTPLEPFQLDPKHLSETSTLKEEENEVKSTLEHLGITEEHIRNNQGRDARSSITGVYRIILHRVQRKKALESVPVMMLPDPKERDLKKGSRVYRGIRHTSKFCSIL

JAK3 = target: T29, JAK3 (Homo sapiens, UniProt P52333)
T29 construct: purchased Reaction Biology Corporation

CK1g2 = target: T30, CK1g2 (Homo sapiens, UniProt P78368)
T30 construct: purchased Reaction Biology Corporation
T30 sequence (P78368 whole entry): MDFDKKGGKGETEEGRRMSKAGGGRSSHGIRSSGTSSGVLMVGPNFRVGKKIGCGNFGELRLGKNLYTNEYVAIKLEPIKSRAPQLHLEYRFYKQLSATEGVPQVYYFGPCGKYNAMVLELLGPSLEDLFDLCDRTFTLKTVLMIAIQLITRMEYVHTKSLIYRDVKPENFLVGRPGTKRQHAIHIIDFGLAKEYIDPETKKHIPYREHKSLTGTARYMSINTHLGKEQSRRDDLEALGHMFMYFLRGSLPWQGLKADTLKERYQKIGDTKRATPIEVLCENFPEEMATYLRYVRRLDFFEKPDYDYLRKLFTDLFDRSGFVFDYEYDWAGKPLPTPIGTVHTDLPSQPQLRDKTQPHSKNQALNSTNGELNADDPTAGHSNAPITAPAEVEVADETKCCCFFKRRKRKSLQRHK

CDK8/cyclin C = target: T31, CDK8/cyclin C (Homo sapiens, UniProt P49336)
T31 construct: purchased Reaction Biology Corporation

EPHA6 = target: T32, EPHA6 (Homo sapiens, UniProt Q9UF33)
T32 construct: purchased Reaction Biology Corporation

KHS/MAP4K5 = target: T33, KHS/MAP4K5 (Homo sapiens, UniProt Q9Y4K4)
T33 construct: purchased Reaction Biology Corporation
T33 sequence (Q9Y4K4 whole entry): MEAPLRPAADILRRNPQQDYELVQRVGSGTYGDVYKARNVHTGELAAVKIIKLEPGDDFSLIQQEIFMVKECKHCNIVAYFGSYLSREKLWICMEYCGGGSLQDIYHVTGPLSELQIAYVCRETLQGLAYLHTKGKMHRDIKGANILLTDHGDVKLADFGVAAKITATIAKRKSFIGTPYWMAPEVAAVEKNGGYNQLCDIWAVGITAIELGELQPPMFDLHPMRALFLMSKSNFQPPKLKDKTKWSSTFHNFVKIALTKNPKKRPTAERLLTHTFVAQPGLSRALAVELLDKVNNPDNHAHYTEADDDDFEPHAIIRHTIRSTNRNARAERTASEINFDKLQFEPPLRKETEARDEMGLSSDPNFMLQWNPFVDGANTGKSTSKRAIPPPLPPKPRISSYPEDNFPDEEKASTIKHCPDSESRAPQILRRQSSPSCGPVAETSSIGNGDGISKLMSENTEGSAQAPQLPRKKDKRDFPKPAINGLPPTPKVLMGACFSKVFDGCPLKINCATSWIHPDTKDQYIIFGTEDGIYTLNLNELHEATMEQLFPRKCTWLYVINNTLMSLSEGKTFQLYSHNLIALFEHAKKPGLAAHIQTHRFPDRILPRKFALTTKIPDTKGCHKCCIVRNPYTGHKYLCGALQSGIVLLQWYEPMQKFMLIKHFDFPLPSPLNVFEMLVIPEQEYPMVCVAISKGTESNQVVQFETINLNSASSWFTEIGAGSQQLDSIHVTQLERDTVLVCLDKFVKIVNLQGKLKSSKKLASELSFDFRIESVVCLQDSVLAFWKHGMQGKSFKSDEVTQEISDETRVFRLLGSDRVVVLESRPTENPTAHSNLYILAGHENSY

TXK = target: T34, TXK (Homo sapiens, UniProt P42681)
T34 construct: purchased Reaction Biology Corporation

IKKe/IKBKE = target: T35, IKKe/IKBKE (Homo sapiens, UniProt Q14164)
T35 construct: purchased Reaction Biology Corporation

EPHA7 = target: T36, EPHA7 (Homo sapiens, UniProt Q15375)
T36 construct: purchased Reaction Biology Corporation
T36 sequence (Q15375 28-998): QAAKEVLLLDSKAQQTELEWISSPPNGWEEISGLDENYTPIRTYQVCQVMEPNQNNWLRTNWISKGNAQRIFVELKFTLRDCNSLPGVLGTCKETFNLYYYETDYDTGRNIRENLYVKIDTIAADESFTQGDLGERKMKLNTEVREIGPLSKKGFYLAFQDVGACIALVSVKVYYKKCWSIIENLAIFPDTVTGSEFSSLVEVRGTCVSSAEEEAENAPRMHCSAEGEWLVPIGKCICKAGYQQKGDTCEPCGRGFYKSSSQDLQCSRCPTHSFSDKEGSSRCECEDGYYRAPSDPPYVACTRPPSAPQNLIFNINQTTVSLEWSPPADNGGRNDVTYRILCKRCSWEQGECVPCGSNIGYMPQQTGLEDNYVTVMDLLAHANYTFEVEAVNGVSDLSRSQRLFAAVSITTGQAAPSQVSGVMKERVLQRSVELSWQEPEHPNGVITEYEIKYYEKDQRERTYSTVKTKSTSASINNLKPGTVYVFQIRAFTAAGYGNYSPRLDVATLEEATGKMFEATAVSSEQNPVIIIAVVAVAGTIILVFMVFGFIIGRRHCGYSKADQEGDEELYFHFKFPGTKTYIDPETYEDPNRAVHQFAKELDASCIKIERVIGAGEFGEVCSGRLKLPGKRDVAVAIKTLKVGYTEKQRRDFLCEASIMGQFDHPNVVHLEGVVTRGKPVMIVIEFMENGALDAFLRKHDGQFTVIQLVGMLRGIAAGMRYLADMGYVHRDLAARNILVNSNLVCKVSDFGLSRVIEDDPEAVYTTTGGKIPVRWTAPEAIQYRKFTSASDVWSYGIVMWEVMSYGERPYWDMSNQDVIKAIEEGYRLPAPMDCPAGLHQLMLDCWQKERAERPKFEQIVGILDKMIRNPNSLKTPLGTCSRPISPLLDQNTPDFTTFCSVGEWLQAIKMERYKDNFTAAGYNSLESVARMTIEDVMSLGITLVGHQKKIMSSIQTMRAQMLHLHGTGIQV

P38d/MAPK13 = target: T37, P38d/MAPK13 (Homo sapiens, UniProt O15264)
T37 construct: purchased Reaction Biology Corporation

PKCb2 = target: T38, PKCb2 (Homo sapiens, UniProt P05771)
T38 construct: purchased Reaction Biology Corporation

mTOR/FRAP1 = target: T39, mTOR/FRAP1 (Homo sapiens, UniProt P42345)
T39 construct: purchased Reaction Biology Corporation

MAPKAPK3 = target: T40, MAPKAPK3 (Homo sapiens, UniProt Q16644)
T40 construct: purchased Reaction Biology Corporation

PKAcb = target: T41, PKAcb (Homo sapiens, UniProt P22694)
T41 construct: purchased Reaction Biology Corporation

GRK7 = target: T42, GRK7 (Homo sapiens, UniProt Q8WTQ7)
T42 construct: purchased Reaction Biology Corporation

CDK3/cyclin E2 = target: T43, CDK3/cyclin E2 (Homo sapiens, UniProt Q00526)
T43 construct: purchased Reaction Biology Corporation

CO[C@@H]1[C@H](N(C)C(=O)CCC(=O)NCc2cn(CCCS(=O)(=O)O)nn2)C[C@H]2O[C@]1(C)n1c3ccccc3c3c4c(c5c6ccccc6n2c5c31)C(=O)NC4 [CIMSS] gave a remaining activity at 10 µM (DMPK) of 76.5%, a remaining activity at 10 µM (CDK3/cyclin E) of 13.9% and a remaining activity at 10 µM (MST1/STK4) of 4.33%. For the same molecule, the remaining activity at 10 µM (MNK1) was 42.6%, the remaining activity at 10 µM (CDK16/cyclin Y (PCTAIRE)) was 76.6% and the remaining activity at 10 µM (ERBB4/HER4) was 25%. For the same molecule, the remaining activity at 10 µM (PLK2) was 27.4%, the remaining activity at 10 µM (CDK14/cyclin Y (PFTK1)) was 74.5% and the remaining activity at 10 µM (ULK3) was 14.2%. The remaining activity at 10 µM (SNRK) was 72.5%, the remaining activity at 10 µM (STK16) was 10.2% and the remaining activity at 10 µM (ZAP70) was 13%. For the same molecule, the remaining activity at 10 µM (DDR2) was 1.67%, the remaining activity at 10 µM (NEK9) was 2.81% and the remaining activity at 10 µM (LCK) was 3.41%. For the same molecule, the remaining activity at 10 µM (LIMK2) was 67.4%, the remaining activity at 10 µM (LKB1) was 38% and the remaining activity at 10 µM (ULK2) was 13.6%. For the same molecule, the remaining activity at 10 µM (CK1g3) was 97.2%, the remaining activity at 10 µM (LATS2) was 6.54% and the remaining activity at 10 µM (SGK1) was 13.4%. For the same molecule, the remaining activity at 10 µM (TRKC) was 0.34%, the remaining activity at 10 µM (FGFR2) was 2.58% and the remaining activity at 10 µM (MKK7) was 96.2%. It also gave a remaining activity at 10 µM (PKCzeta) of 55.8%, a remaining activity at 10 µM (CDK1/cyclin B) of 13.6% and a remaining activity at 10 µM (FGFR4) of 4.31%. It also gave a remaining activity at 10 µM (NIM1) of 46.6%, a remaining activity at 10 µM (JAK3) of 0.97% and a remaining activity at 10 µM (CK1g2) of 98.5%. It also gave a remaining activity at 10 µM (CDK8/cyclin C) of 10.1%, a remaining activity at 10 µM (EPHA6) of 34.6% and a remaining activity at 10 µM (KHS/MAP4K5) of 5.19%. The remaining activity at 10 µM (TXK) was 3.64%, the remaining activity at 10 µM (IKKe/IKBKE) was 1.47% and the remaining activity at 10 µM (EPHA7) was 6.91%. It also gave a remaining activity at 10 µM (P38d/MAPK13) of 74.7%, a remaining activity at 10 µM (PKCb2) of 1.71% and a remaining activity at 10 µM (mTOR/FRAP1) of 112%. It also gave a remaining activity at 10 µM (MAPKAPK3) of 87.5%, a remaining activity at 10 µM (PKAcb) of 1.62% and a remaining activity at 10 µM (GRK7) of 7.19%. The remaining activity at 10 µM (CDK3/cyclin E2) was 22.3%.

From publication PMC9569420 (Communications Biology, 2022)
